Key:
Rattus norvegicus [1] = test: Hypocholesteremic activity in Sprague-Dawley rat assessed as change in serum cholesterol level at 25 mg/kg, po administered through intubation tube daily for 7 days measured 24 hrs post last dose relative to vehicle-treated control; type: functional
Rattus norvegicus [2] = test: Estrogenic activity in ovariectomized female Sprague-Dawley rat assessed as change in uterus weight measured as micrograms of […]-estradiol that produce an estrogenic response equivalent to compound at 25 mg/kg, po administered through intubation tube daily for 7 days; type: ADME, organism-based; design: dose 25 mg/kg, route oral; details: in vivo, 168 h

Row | estradiol equivalent (Rattus norvegicus [2]) | SMILES | Activity (Rattus norvegicus [1])
1 | – | COc1ccc(C(=O)C(c2ccccc2)c2ccccn2)cc1Br (configuration not stated) | 11.3%
2 | – | O=C(c1ccccc1)C(c1ccccc1)c1ccccn1 (configuration not stated) | 2.5%
3 | 0.87 µg | O=C(c1ccccc1Br)C(c1ccccc1)c1ccccn1 (configuration not stated) | -54.1%
4 | – | O=C(c1cccc(Br)c1)C(c1ccccc1)c1ccccn1 (configuration not stated) | 6.7%
5 | – | O=C(c1ccc(Br)cc1)C(c1ccccc1)c1ccccn1 (configuration not stated) | -22.8%
6 | 0.8 µg | O=C(c1ccccc1Cl)C(c1ccccc1)c1ccccn1 (configuration not stated) | -56.9%
7 | – | O=C(c1cccc(Cl)c1)C(c1ccccc1)c1ccccn1 (configuration not stated) | 0%
8 | – | O=C(c1ccc(Cl)cc1)C(c1ccccc1)c1ccccn1 (configuration not stated) | -3.5%
9 | 0.45 µg | O=C(c1ccccc1F)C(c1ccccc1)c1ccccn1 (configuration not stated) | -30%
10 | – | O=C(c1ccc(F)cc1)C(c1ccccc1)c1ccccn1 (configuration not stated) | -1.3%
11 | 0.7 µg | O=C(c1ccccc1I)C(c1ccccc1)c1ccccn1 (configuration not stated) | -77.1%
12 | – | O=C(c1ccc(I)cc1)C(c1ccccc1)c1ccccn1 (configuration not stated) | 0%
13 | 0.82 µg | Cc1ccccc1C(=O)C(c1ccccc1)c1ccccn1 (configuration not stated) | -64.9%
14 | – | Cc1cccc(C(=O)C(c2ccccc2)c2ccccn2)c1 (configuration not stated) | 13.2%
15 | – | Cc1ccc(C(=O)C(c2ccccc2)c2ccccn2)cc1 (configuration not stated) | 1.5%
16 | 0.29 µg | CC(C)(C)c1ccccc1C(=O)C(c1ccccc1)c1ccccn1 (configuration not stated) | -42%
17 | – | CC(C)(C)c1ccc(C(=O)C(c2ccccc2)c2ccccn2)cc1 (configuration not stated) | 0%
18 | – | COc1ccc(C(=O)C(c2ccccc2)c2ccccn2)cc1 (configuration not stated) | -15.7%
19 | – | COc1ccc(C(=O)C(c2ccccc2)c2ccccn2)cc1OC (configuration not stated) | 6.3%
20 | – | O=C(c1ccc2c(c1)OCO2)C(c1ccccc1)c1ccccn1 (configuration not stated) | 6.3%
21 | – | O=C(c1ccccc1Oc1ccccc1)C(c1ccccc1)c1ccccn1 (configuration not stated) | -15%
22 | – | O=C(c1cccc(OCc2ccccc2)c1)C(c1ccccc1)c1ccccn1 (configuration not stated) | 12.1%
23 | – | O=C(c1ccc(OCc2ccccc2)cc1)C(c1ccccc1)c1ccccn1 (configuration not stated) | 9.3%
24 | – | O=C(c1cccnc1)C(c1ccccc1)c1ccccn1 (configuration not stated) | -2.1%
25 | – | O=C(c1ccc2ccccc2c1)C(c1ccccc1)c1ccccn1 (configuration not stated) | 0%
26 | – | O=C(c1cc(-c2ccccc2)nc2cc(Cl)ccc12)C(c1ccccc1)c1ccccn1 (configuration not stated) | 3.8%

From ChEMBL document CHEMBL3272235, “alpha-(2-Pyridine)benzyl aryl ketones as potential hypocholesteremic agents” (J Med Chem, 1978)
